PMC9820828, “Anti-Melanogenesis Effects of a Cyclic Peptide Derived from Flaxseed via Inhibition of CREB Pathway” (International Journal of Molecular Sciences, 2022)

Key:
Assay type in all cases: cell-based, mouse
B16F10 melanoma cells [1] = assay: Cell viability (MTT assay); conditions: for cell viability (MTT): B16F10 melanoma cells; for toxicity (MTT): at the concentration contained in LOMIX and at all concentrations (0–50 μM)
Method: Mouse-derived B16F10 melanoma cells were incubated in the DMEM medium supplemented with 10% (v/v) FBS and 1% streptomycin–penicillin solution at 37 °C and 5% CO2. Sub-culture was conducted by detaching the cells with trypsin-EDTA after reaching 90% confluence.
The effects of LOMIX and each LO compound on cell survival were determined using the MTT assay. B16F10 melanoma cells (100 μL of 1.5 × 10^5 cells/mL) were seeded in a 96-well plate with 100 μL of the testing sample [LOMIX (0–200 μg/mL) or LO (0–50 μM)]. After 2 days, MTT solution (10 μL) was added to each well, and cells were incubated for an additional 3 h in the dark. The reaction was stopped by adding 100 μL of 10% SDS complemented with 0.01 M HCl. Moreover, 5000 cells/well of B16F10 melanoma cells were incubated in 96-well plates to check the cytotoxicity of LOMIX in the presence of α-MSH. The 10 μL of MTT solution was added to the cells incubated with the LOMIX (50 and 100 μg/mL) and α-MSH (100 nM) for 0, 24, and 48 h. Subsequently, the stopping solution (100 μL) (10% SDS solution with 0.01 M HCl) was added after 3 h incubation. The absorbance was measured at 570 nm using Synergy™ HTX (Biotek Instruments Inc., Winooski, VT, USA).

B16F10 melanoma cells [2] = assay: Extracellular melanin secretion in α-MSH-stimulated cells; conditions: 48 h; for melanin (pigment) secretion: 12.5, 25 and 50 μM; for secretion of melanin: 6.25, 12.5 and 25 μM, dose-dependent
Method: (§1) B16F10 melanoma cells (1.5 × 10^5 cells/mL) were seeded in a 6-well plate and cultured overnight. Then, the culture media were replaced with phenol red-free media containing DMSO (vehicle) or α-MSH (melanogenesis inducer) for the identification of the color change caused by melanogenesis. The cells were treated with different concentrations of LOMIX (25, 50, and 100 μg/mL) or LO A, B (6.25, 12.5, and 25 μM), D, E, and F and G (12.5, 25, and 50 μM). Arbutin at 1 mM was used as a positive control. After 48 h of the incubation, the culture medium’s optical density was detected at 475 nm to measure the amount of extracellular melanin secretion. Meanwhile, the remaining cells were harvested with 1 mL cold PBS and lysed with a lysis buffer (50 mM Tris-HCl pH 7.5, 120 mM NaCl, 20 mM β-glycerophosphate pH 7.5, and 2% NP-40). After centrifuging at 12,000× g for 5 min., the cell pellets were dissolved in 10% DMSO in 1 M NaOH and incubated at 60 °C. The melanin contents were measured at 405 nm using a Synergy™ HTX microplate reader. All photos of melanin-secreted medium and intracellular melanin contents were collected.

MITF [3] = assay: Immunoblotting, MITF protein; conditions: 0–25 μM, 100 nM α-MSH, 24 h, B16F10 cell lysates, Western blotting
Method: (§2) To induce melanogenesis, 3 × 10^5 B16F10 melanoma cells per mL were treated with 100 nM of α-MSH. Subsequently, 1 mM of arbutin or LO A or B (0–25 μM) was administered to the culture media for 24 h. The cells were then harvested with 1 mL of cold PBS and lysed with lysis buffer containing protease inhibitors (20 mM Tris-HCl pH 7.5, 2 mM EDTA, 20 mM NaF, 150 mM NaCl, 50 mM β-glycerol phosphate, and 2% NP-40 containing 2 μg/mL of leupeptin, pepstatin, and aprotinin). The whole cell lysates were centrifuged at 12,000× g for 5 min to purify the intracellular protein. SDS-polyacrylamide gel electrophoresis (Bio-Rad, Hercules, CA, USA) was conducted to separate the equivalent protein contents according to size. The separated proteins were transferred to polyvinylidene fluoride membranes and blocked with 3% (w/v) bovine serum albumin (BSA) solution for at least 30 min at ambient temperature. They then were incubated overnight with primary antibodies (1:2500 dilution) at 4 °C. After three 10-min washes with 0.1% (w/v) Tween-20, the membranes were probed with HRP-conjugated secondary antibodies (1:2500 dilution). The signals of each protein sample were detected with enhanced chemiluminescence reagents.

TYRP-2 = assay: Real-time PCR, TYRP-2 mRNA; conditions: 0–25 μM, co-treatment with 100 nM α-MSH, 24 h, B16F10 cells
Method: (§3) B16F10 cells (3 × 10^5 cells/mL) stimulated by 100 nM α-MSH were treated with LOMIX (0–100 μg/mL), LO A or B (0–25 μM), or arbutin 1 mM for 24 h. The cells were lysed with 300 μL of TRI Reagent® to extract total RNA. Then, 1 μg of total RNA with Reverse Transcriptase M-MuLV (Thermo Fisher Scientific, Waltham, MA, USA) was utilized to synthesize cDNA according to the manufacturer’s instructions. Real-time PCR was conducted, as previously described.

Tyrosinase = assay: Real-time PCR, Tyrosinase mRNA; conditions: 0–25 μM, co-treatment with 100 nM α-MSH, 24 h, B16F10 cells
Method: as §3

TYRP-1 = assay: Real-time PCR, TYRP-1 mRNA; conditions: 0–25 μM, co-treatment with 100 nM α-MSH, 24 h, B16F10 cells
Method: as §3

PKA = assay: Immunoblotting, phosphorylated PKA; conditions: 0–25 μM, 100 nM α-MSH, 24 h, B16F10 cell lysates, Western blotting
Method: as §2

B16F10 melanoma cells [4] = assay: Intracellular melanin content in α-MSH-stimulated cells; conditions: for melanin synthesis (melanin contents): 6.25, 12.5 and 25 μM, α-MSH, 48 h, B16F10 cells; for suppression of the synthesis of melanin: 12.5 and 25 μM, B16F10 cell lines
Method: as §1

MITF [5] = assay: Real-time PCR, MITF mRNA; conditions: 0–25 μM, co-treatment with 100 nM α-MSH, 24 h, B16F10 cells
Method: as §3

CREB = assay: Immunoblotting, phosphorylated CREB; conditions: 0–25 μM, 100 nM α-MSH, 24 h, B16F10 cell lysates, Western blotting
Method: as §2

Substance	cell viability (MTT) (B16F10 melanoma cells [1]; 50 μM, 48 h)	toxicity (MTT) (B16F10 melanoma cells [1]; B16F10 cells, 48 h)	melanin (pigment) secretion (B16F10 melanoma cells [2])	protein level of MITF (MITF [3])	expression of TYRP-2 at mRNA level (TYRP-2)	expression of tyrosinase at mRNA level (Tyrosinase)	expression of TYRP1 at mRNA level (TYRP-1)	phosphorylation of PKA (PKA)	melanin synthesis (melanin contents) (B16F10 melanoma cells [4])	suppression of the synthesis of melanin (B16F10 melanoma cells [4])	expression of MITF at mRNA level (MITF [5])	secretion of melanin (B16F10 melanoma cells [2])	phosphorylation of CREB (CREB)	cell viability (MTT) (B16F10 melanoma cells [1]; 25 μM, 48 h)	cell survival (MTT) (B16F10 melanoma cells [1]; 50 μM, B16F10 cells, 48 h)	toxicity (B16F10 melanoma cells [1]; 12.5 and 25 μM, B16F10 cell lines)
[1–8-NαC],[1-(Rs,Ss)-MetO]-linusorb A2 [LO3]	not altered	did not show toxicity	decreased	–	–	–	–	–	–	–	–	–	–	–	–	–
[1–8-NαC],[1-(Rs,Ss)-MetO]-linusorb B1 [LO4]	not altered	did not show toxicity	decreased	–	–	–	–	–	–	–	–	–	–	–	–	–
[1–9-NαC]-linusorb B2 [LO2]	–	–	–	decreased levels	suppressed	downregulated	downregulated	not PKA	decreased	up to 90%	downregulated	dramatically downregulated	blocked	–	–	–
[1–9-NαC]-linusorb B3 [LO1]	–	–	–	significantly decreased	suppressed	effectively inhibited	effectively inhibited	suppressed	decreased	up to 90%	effectively inhibited	dramatically downregulated	suppressed	not altered	declined	without toxicity
